Measured values from US20220039386A1, “METHOD FOR CONTROLLING PESTS OF RAPESEED PLANTS” (BASF SE, priority 2018, published 2022).

Columns and labels:
[1] = tested on: Meligethes aeneus; assay: Oilseed rape inflorescence dip (foliar application), pollen beetle control; assay type: in vivo
Procedure: 2. Oilseed Rape—Pollen Beetle, Meligethes aeneus:
Foliar application: Test units consisted of a plastic cup with a hole in the bottom and a glass vial below that hole, containing irrigation water. Oil seed rape inflorescences were dipped into the treatment solutions and after drying placed inside the plastic cups. Each cup was sealed with a perforated, transparent lid. Ten adult pollen beetles, field collected, were added to each cup. Each treatment was replicated three times. Pollen beetle survival was assessed 3 days after application.

[2] = tested on: Phyllotreta striolata; assay: Canola foliar treatment, striped flea beetle mortality; assay type: in vivo
Procedure: 1. Canola-Striped Flea Beetle, Phyllotreta striolata:
Canola foliar treatment: Before application, construction paper was placed at the base of each plant to catch spray solution and therefore preventing beetle contact with contaminated soil and pots (allowing only the plants to be treated). Canola seedlings were treated at the first true leaf stage in a spray chamber at 300 L/ha with a three nozzle (TX-6) flat boom. Plants were allowed to dry, paper was removed, and plants were transferred to a greenhouse to hold over night. At infest, three plants (replicates) per treatment were placed into a bucket. Twenty adult flea beetles (mix sex) were aspirated into a vial and placed in the center of the bucket. The container was closed and placed into a Percival at 25 C 50% RH. Mortality evaluation was made on 6 DAI.

`C[n+]1c([O-])c(-c2ccccc2)c(=O)n2c1SC[C@@H]2c1cnc(Cl)s1` [Compound I-R-1] was tested. Which “Percent control (%) A03” value ([1]; 72 g ai/ha, oil seed rape inflorescences dipped, field collected adult pollen beetles, assessed 3 days after application) did it give?
The value was 47.8 a %.

And the “efficacy against the adults of pollen beetle (summary in words)” value ([1]; foliar application)?
Its value is “good efficacy”.

And the mortality at 600 ppm ([2]; Phyllotreta striolata, in Brassica napus, 600 ppm, foliar spray 300 L/ha on canola seedlings at first true leaf, adult flea beetles, evaluation 6 DAI)?
Its mortality at 600 ppm is ≥ 65%.

And the “flea beetle control (summary in words)” value ([2]; canola foliar treatment, Table 1)?
Its value is “good flea beetle control”.
